Results as given in US10987372B2, “Anti-hepatoma-virus agent” (KAGOSHIMA UNIVERSITY, priority 2016, dated 2021).

Columns and labels:
[1] = tested on: HBV; test: Determination of anti-HBV activity: HBV DNA by quantitative PCR in HepG2.2.15 cells; type: cell-based; conditions: for anti-HBV activity (intracellular HBV DNA amount): 1 μM, culture for 7 days, quantitative PCR (FIG. 3)
Description: FIG. 3 is a graph showing anti-HBV activity levels of purine antimetabolites. HepG2.2.15 cells were seeded at a concentration of 1×10^5 cells/well. Then, 24 hours later, purine antimetabolites (clofarabine, cladribine, and fludarabine) and entecavir (ETV) were each diluted to result in a final concentration of 1 μM and each dilution was added to cells. After culture for 7 days, the cytoplasmic fraction was collected and DNA was purified by phenol-chloroform extraction. The intracellular HBV DNA amount was evaluated by quantitative PCR using 20 ng of purified DNA.
FIG. 5 is a graph showing anti-HBV activity of clofarabine. HepG2.2.15 cells were seeded at a concentration of 1×10^5 cells/well. Then, 24 hour later, clofarabine was diluted to result in concentrations of 0, 0.97, 1.95, 3.90, 7.81, 15.6, 31.3, 62.5, 125, 250, 500, and 1000 nM and each dilution was added to cells. After culture for 7 days, the cytoplasmic fraction was collected and DNA was purified by phenol-chloroform extraction. The intracellular HBV DNA amount was evaluated by quantitative PCR using 20 ng of purified DNA.
Anti-HBV activity was evaluated by quantitative PCR for determining the amount of HBV DNA in cells or HBV DNA in the culture supernatant on day 7 after the addition of the agent using the HepG2.2.15 cell line of HBV-producing cells obtained by introducing a gene having a length twice that of the HBV genome into the human liver cancer cell line HepG2. For PCR of HBV DNA, a forward primer (HBV-S190F; 5′-GCT CGT GTT ACA GGC GGG-3′: SEQ ID NO: 1) and a reverse primer (HBV-S703R; 5′-GAACCACTGAACAAATGGCACTAGTA-3′: SEQ ID NO: 2) were used. PCR was performed by carrying out a reaction at 95° C. for 10 sec, 62° C. for 10 sec, and 72° C. for 30 sec for 35 cycles.
For screening of the anti-HBV agent, the HepG2.2.15 line obtained by introducing the HBV gene into HepG2 cells of a human cancer cell line was used (Production of hepatitis B virus particles in HepG2 cells transfected with cloned hepatitis B virus DNA. Sells M A, Chen M L, and Acs G., Proc. Natl. Acad. Sci. USA 84: 1005-1009 (1987)). […]

[2] = tested on: HCV; test: Evaluation of anti-HCV activity: Renilla luciferase HCV RNA replication reporter in OR6 cells; type: cell-based; conditions: 1 μM, culture for 3 days (FIG. 4)
Description: FIG. 4 is a graph showing anti-HCV activity levels of purine antimetabolites. OR6 cells were seeded at a concentration of 1.5×10^4 cells/well. Then, 24 hours later, purine antimetabolites were each diluted to result in a final concentration of 1 μM and each dilution was added to cells. After culture for 3 days, cells were collected to determine Renilla luciferase activity.
FIG. 7 is a graph showing anti-HCV activity of clofarabine. OR6 cells were seeded at a concentration of 1.5×10^4 cells/well. Then, 24 hour later, clofarabine was diluted to result in concentrations of 0, 15.6, 31.3, 62.5, 125, 250, 500, and 1000 nM and each dilution was added to cells. After culture for 3 days, cells were collected to determine Renilla luciferase activity.
Anti-HCV activity was evaluated using OR6 cells from the human liver cancer cell line HuH-7 and ORL8 cells from the human liver cancer cell line Li23. Since the Renilla Luciferase gene has been incorporated into the genome of the genotype-1b O strain in OR6 cells and ORL8 cells, it is possible to conveniently and accurately evaluate the level of HCV RNA replication by determining the Renilla Luciferase activity. Each agent was added to OR6 cells or ORL8 cells, the cells were recovered on day 3, and the Renilla Luciferase activity was determined. […]

[3] = tested on: leukemia; conditions: clinical use for leukemia; cited from earlier work

Row | SMILES | anti-HBV activity (intracellular HBV DNA amount) [1] | anti-HCV activity (Renilla luciferase activity) [2] | concentration at which anti-HBV activity is exhibited ([1]; 7 days (FIG. 5)) | effective blood level for leukemia [3]
1 | Nc1nc(Cl)nc2c1ncn2[C@H]1C[C@H](O)[C@@H](CO)O1 [cladribine, 2-chloro-9-(2-deoxy-β-D-arabinofuranosyl)adenine] | does not have anti-HBV activity | has anti-HCV activity | – | –
2 | Nc1nc(Cl)nc2c1ncn2[C@@H]1O[C@H](CO)[C@@H](O)[C@@H]1F [clofarabine, 2-chloro-9-(2-deoxy-2-fluoro-β-D-arabinofuranosyl)adenine] | comparable to that of entecavir | comparable to that of sofosbuvir | about 20 nM | about 2 μM
